Patent US4697036A, “Process for the preparation of optically active alpha-arylalkanoic acids and novel intermediates thereof” (Zambon S.p.A., priority 1984, dated 1987)

How the values were obtained:
Format in all cases: in vivo
[1] = Anti-inflammatory activity by oral administration; settings: for ED50: oral, dose column in μM/kg/os, after 3 h, read-out: ED50 (L.C. 95%)
Source text: A further unexpected property of the compounds of formula (C) is that they are in themselves pharmacologically active compounds. […] The following tables give the data relative to the anti-inflammatory and antipyretic activity of the compounds (D) in which: |Anti-inflammatory activity of the derivatives (a) and |(b) with respect to Naproxen and 5-bromo-Naproxen (c) |by oral administration

[2] = Antipyretic activity by peritoneal administration in rats (change in body temperature); settings: peritoneal administration (title)
[3] = Antipyretic activity by oral administration in rats (change in body temperature)
Source text: Antipyretic activity of compound (a) and (b) with respect to
Naproxen and 5-bromo-Naproxen (c)
by oral administration in rats

COC(=O)C(O)C(OC(=O)C(C)c1ccc2c(Br)c(OC)ccc2c1)C(=O)OC (stereo not shown) [(b)]
Inhibition (after 3 h) ([1]; 10 μM/kg/os): 3% | Inhibition (after 3 h) ([1]; 30 μM/kg/os): 14% | Inhibition (after 3 h) ([1]; 100 μM/kg/os): 20% | ED50 [1]: 160 µmol/kg | Change in body temperature after 30 min ([2]; 10 μM/kg): -0.24 °C | Change in body temperature after 1 hour ([2]; 10 μM/kg): -0.52 °C | Change in body temperature after 4 hours ([2]; 10 μM/kg): -0.26 °C | Change in body temperature after 30 min ([2]; 30 μM/kg): -0.77 °C | Change in body temperature after 1 hour ([2]; 30 μM/kg): -0.87 °C | Change in body temperature after 4 hours ([2]; 30 μM/kg): -0.44 °C | Change in body temperature after 1 hour ([3]; 10 μM/kg/oral): -0.17 °C | Change in body temperature after 2 hours ([3]; 10 μM/kg/oral): -0.19 °C | Change in body temperature after 1 hour ([3]; 30 μM/kg/oral): -0.49 °C | Change in body temperature after 2 hours ([3]; 30 μM/kg/oral): -0.68 °C | Change in body temperature after 1 hour ([3]; 100 μM/kg/oral): -0.46 °C | Change in body temperature after 2 hours ([3]; 100 μM/kg/oral): -0.68 °C

COc1ccc2cc([C@H](C)C(=O)O)ccc2c1 [Naproxen, S(+)2-(6-methoxy-2-naphtyl)-propionic acid, reference compound]
Inhibition (after 3 h) ([1]; 10 μM/kg/os): 38% | Inhibition (after 3 h) ([1]; 30 μM/kg/os): 45% | Inhibition (after 3 h) ([1]; 100 μM/kg/os): 66% | ED50 [1]: 31 µmol/kg | Change in body temperature after 30 min ([2]; 10 μM/kg): -1.00 °C | Change in body temperature after 1 hour ([2]; 10 μM/kg): -1.10 °C | Change in body temperature after 4 hours ([2]; 10 μM/kg): -0.86 °C | Change in body temperature after 1 hour ([3]; 3 μM/kg/oral): -0.38 °C | Change in body temperature after 2 hours ([3]; 3 μM/kg/oral): -0.52 °C | Change in body temperature after 1 hour ([3]; 10 μM/kg/oral): -1.22 °C | Change in body temperature after 2 hours ([3]; 10 μM/kg/oral): -1.48 °C | Change in body temperature after 1 hour ([3]; 30 μM/kg/oral): -1.86 °C | Change in body temperature after 2 hours ([3]; 30 μM/kg/oral): -1.89 °C

COc1ccc2cc([C@H](C)C(=O)O)ccc2c1Br [(c), S(+)-2-(5-bromo-6-methoxy-2-naphthyl)-propionic acid, reference compound]
Inhibition (after 3 h) ([1]; 10 μM/kg/os): 6% | Inhibition (after 3 h) ([1]; 30 μM/kg/os): 34% | Inhibition (after 3 h) ([1]; 100 μM/kg/os): 34% | Inhibition (after 3 h) ([1]; 300 μM/kg/os): 56% | ED50 [1]: 196 µmol/kg | Change in body temperature after 30 min ([2]; 30 μM/kg): -0.55 °C | Change in body temperature after 1 hour ([2]; 30 μM/kg): -1.01 °C | Change in body temperature after 4 hours ([2]; 30 μM/kg): +0.06 °C | Change in body temperature after 30 min ([2]; 100 μM/kg): -0.78 °C | Change in body temperature after 1 hour ([2]; 100 μM/kg): -1.45 °C | Change in body temperature after 4 hours ([2]; 100 μM/kg): -0.99 °C | Change in body temperature after 1 hour ([3]; 30 μM/kg/oral): -0.17 °C | Change in body temperature after 2 hours ([3]; 30 μM/kg/oral): -0.66 °C | Change in body temperature after 1 hour ([3]; 100 μM/kg/oral): -1.33 °C | Change in body temperature after 2 hours ([3]; 100 μM/kg/oral): -1.67 °C | Change in body temperature after 1 hour ([3]; 300 μM/kg/oral): -1.42 °C | Change in body temperature after 2 hours ([3]; 300 μM/kg/oral): -1.84 °C

COC(=O)C(O)C(OC(=O)C(C)c1ccc2cc(OC)ccc2c1)C(=O)OC (stereo not shown) [(a)]
Inhibition (after 3 h) ([1]; 10 μM/kg/os): 0% | Inhibition (after 3 h) ([1]; 30 μM/kg/os): 0% | Inhibition (after 3 h) ([1]; 100 μM/kg/os): 16% | ED50 [1]: 175 µmol/kg | Change in body temperature after 30 min ([2]; 10 μM/kg): -0.26 °C | Change in body temperature after 1 hour ([2]; 10 μM/kg): -0.52 °C | Change in body temperature after 4 hours ([2]; 10 μM/kg): -0.19 °C | Change in body temperature after 30 min ([2]; 30 μM/kg): -0.61 °C | Change in body temperature after 1 hour ([2]; 30 μM/kg): -1.02 °C | Change in body temperature after 4 hours ([2]; 30 μM/kg): -0.56 °C | Change in body temperature after 1 hour ([3]; 10 μM/kg/oral): -0.02 °C | Change in body temperature after 2 hours ([3]; 10 μM/kg/oral): +0.02 °C | Change in body temperature after 1 hour ([3]; 30 μM/kg/oral): +0.07 °C | Change in body temperature after 2 hours ([3]; 30 μM/kg/oral): -0.61 °C | Change in body temperature after 1 hour ([3]; 100 μM/kg/oral): +0.01 °C | Change in body temperature after 2 hours ([3]; 100 μM/kg/oral): -0.76 °C | Change in body temperature after 1 hour ([3]; 300 μM/kg/oral): +0.03 °C | Change in body temperature after 2 hours ([3]; 300 μM/kg/oral): -0.81 °C
